Our source for the IC50 values is patent US12606551B2, “Salt of tetrahydroisoquinoline derivative, preparation method therefor, and medical use thereof” (ZHEJIANG HISUN PHARMACEUTICAL CO., LTD., priority 2020, dated 2026).

Some results are limits rather than exact numbers.

This experiment addresses T1, AT1R (Homo sapiens, UniProt P30556).
T1 construct: Tb (terbium) label on the receptor; expressed in transfected cells
T1 sequence (P30556 1-359): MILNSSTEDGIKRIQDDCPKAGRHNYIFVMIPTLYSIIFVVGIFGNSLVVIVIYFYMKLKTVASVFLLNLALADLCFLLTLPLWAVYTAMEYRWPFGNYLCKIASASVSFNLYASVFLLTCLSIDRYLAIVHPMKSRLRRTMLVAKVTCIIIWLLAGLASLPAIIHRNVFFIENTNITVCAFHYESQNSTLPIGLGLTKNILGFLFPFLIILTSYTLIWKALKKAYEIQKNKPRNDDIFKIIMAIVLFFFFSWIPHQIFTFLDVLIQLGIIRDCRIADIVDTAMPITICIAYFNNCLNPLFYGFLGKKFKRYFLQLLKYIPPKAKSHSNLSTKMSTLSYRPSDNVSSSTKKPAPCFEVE
As to the kind of experiment: Antagonistic activity against AT1R (same method with Tb-labeled-AT1R cells). The class given is binding. As for the experimental part:
(12) Similarly, the IC50 of the antagonistic activity of the compounds of the present invention against AT1R was tested according to basically the same method, except that Tb-labeled-AT2R cells were replaced by Tb-labeled-AT1R cells.

What is called IC50 is the concentration that inhibits the measured activity by half. Lower therefore signals inhibition by little substance. In the case of `COc1ccc(COc2c(OC)ccc3c2C[C@@H](C(=O)[O-])N(c2nc4ccc(F)cc4o2)C3)nc1.[Na+]` [Compound 1], the IC50 was above 10 µM.
